Laboratory results taken from patent US20020022742A1, “Salt forms of an HIV protease inhibitor” (priority 2000, published 2002).
≈ marks a conversion by molar mass, not a printed value.

What was measured:
HIV protease = HIV protease (Human immunodeficiency virus type 1 group M subtype B, UniProt P04585); experiment: HIV protease inhibition (test only mentioned); type: biochemical; details: stated in words only, no value given
HIV-1 (RF) = experiment: HIV RNA assay, microplate based compound evaluation in HIV-1 infected MT-2 cells; type: cell-based; details: Human immunodeficiency virus 1, MT2, 72 h; HIV-1 (RF) infected MT-2 cells, 3 days of culture; virus dilutions selected to result in this value (standardization of inoculum); read-out: IC90 (concentration of compound required to reduce the HIV RNA level by 90%)

SMILES: CC(C)CN(C[C@@H](O)[C@H](Cc1ccccc1)NC(=O)[C@@H](NC(=O)CNCc1cccc(F)c1)C(C)(C)C)S(=O)(=O)c1ccc(N)cc1 [Compound A]
- HIV protease inhibitory activity (HIV protease): potent HIV protease inhibitor

SMILES: Nc1ccn([C@H]2CC[C@@H](CO)O2)c(=O)n1 [ddC, dideoxycytidine]
- IC90 (HIV-1 (RF)): 0.2 µg/mL (≈ 0.947 µM)
